Data from patent US20260096569A1, “EDIBLE COATING WITH ANTIMICROBIAL PROPERTIES” (priority 2021, published 2026).
“Also recorded” adds a separate entry of the source. Like-named read-outs stand apart in the source and are kept apart here.

How the values were obtained:
Colletotrichum [1] = assay: Screening for stem end rot (Colletotrichum) infection control, California avocados; format: in vivo
Description: To screen for infection control of stem end rot (Colletotrichum) with epicatechin, ASM, and MeSA (methyl salicylate), California avocados size 84 were infected with Colletotrichum spores (103 spores/ml) and treated with 0.01% an imidazole antifungal agent, such as Prochloraz, 0.1% epicatechin, 0.01% ASM, or 0.1% MeSA, as indicated. Uninfected and infected controls were not exposed to treatments. […] Disease index is on a scale from 0-1 and takes into account both the percent of fruit infected and the average severity of the infection in the sample group. The average severity is on a scale from 0-4. Percent disease index is calculated as follows: (Percent infected*Average infection severity)/4.

Colletotrichum [2] = assay: Salicylic acid, sodium salicylate and chitosan on stem end rot of infected California avocados; format: in vivo
Method: To determine the impact of salicylic acid, sodium salicylate, and chitosan on stem end rot (Colletotrichum), California avocados size 96 were infected with 10^3 Colletotrichum spores and treated with 0.01% of an imidazole antifungal agent, such as Prochloraz, 0.05% salicylic acid, 0.1% salicylic acid, 0.2% salicylic acid, 1% sodium salicylate, or 1% chitosan+5 mM C10 monoglyceride. Uninfected and infected controls were not exposed to treatments. Following treatment, the percent disease index of stem end rot was determined for each avocado. […] However, the 1% chitosan+5 mM C10 monoglyceride treatment sample size was 14 avocados.

[3] = Mixture and carvacrol on avocados: respiration and mass loss; format: in vivo
Method: (§1) Fifty-four avocados were tested per treatment. Avocados were dipped into treatment liquids and allowed to dry. Respiration (CO2 production), mass loss, disease indices of stem end rot and vascular browning were measured. […] The timing of spoilage was affected by treatments (FIG. 14).

stem end rot [4] = assay: Mixture and carvacrol on avocados: incidence of stem end rot; format: in vivo; details: 10 g/L carvacrol alone
Method: as §1

vascular browning = assay: Mixture and carvacrol on avocados: incidence of vascular browning; format: in vivo; details: 10 g/L carvacrol alone
Method: as §1

[5] = Organic mixture and carvacrol on wounded organic lemons: mass loss and skin damage; format: in vivo; details: carvacrol alone (5 g/L carvacrol+0.25 g/L sodium stearate)
Description: To determine the impact of an organic mixture of glycerol monostearate and sodium stearate mixed with carvacrol on mass loss and mold incidence in organic lemons, unwaxed California organic lemons sized 140 were exposed to 30 g/L an organic mixture of glycerol monostearate and sodium stearate mixed, 30 g/L an organic mixture of glycerol monostearate and sodium stearate+5 g/L carvacrol, or 5 g/L carvacrol+0.25 g/L sodium stearate, or were untreated. Batches of 140 lemons per condition were used. Lemons were physically wounded with the stem of another lemon, dipped into a treatment or left untreated, and dried in ambient conditions. Mass loss and disease incidence (% of group with mold) were measured. The addition of carvacrol to an organic mixture of glycerol monostearate and sodium stearate mixed with carvacrol increased mass loss factor to 1.7×compared to the organic mixture of glycerol monostearate and sodium stearate mixed with carvacrol alone, which was 1.3× of the untreated group (FIG. 15A). The addition of carvacrol to an organic mixture of glycerol monostearate and sodium stearate mixed with carvacrol reduced the incidence of mold ˜12% from untreated lemons and 22% from an organic mixture of glycerol monostearate and sodium stearate mixed with carvacrol alone treated lemons after 6.5 days of ambient storage (FIG. 15B).

[6] = Mixture and carvacrol on organic lemons in cold storage: mass loss and quality; format: in vivo; details: carvacrol alone (10 g/L carvacrol+50 g/L ethanol), dried in ambient conditions
Method: Batches of 120 lemons per condition were used. Lemons were dipped into a treatment or left untreated, dried in ambient conditions, and stored at 8° C., 80% relative humidity for several weeks. Mass loss was measured.

[7] = Mixture with increasing carvacrol and ethanol on organic lemons: mass loss and quality; format: in vivo; details: heated drying in a drying tunnel
Method: Specifically, 1 g/L carvacrol+5 g/L ethanol, 2 g/L carvacrol+10 g/L ethanol, 3 g/L carvacrol+15 g/L ethanol, 6 g/L carvacrol+30 g/L ethanol, or 8 g/L carvacrol+40 g/L ethanol. Batches of 120 lemons per condition were used. Lemons were dipped into a treatment or left untreated, dried in heated conditions in a drying tunnel, and stored at ambient conditions. Mass loss was measured.

Colletotrichum [8] = assay: Salicylic acid and chitosan combinations on stem end rot of infected Mexican avocados; format: in vivo; details: infected Mexican avocados size 84, 0.2%, compared with the other treatments
Method: To determine the impact of salicylic acid and chitosan combinations on stem end rot (Colletotrichum), Mexican avocados size 84 were infected with 103 Colletotrichum spores and treated with 0.01% of an imidazole antifungal agent, such as Prochloraz, 0.1% low molecular weight chitosan (1 g/L), 0.2% salicylic acid, or 0.2% salicylic acid+0.1% chitosan. Uninfected and infected controls were not exposed to treatments. Following treatment, the percent disease index of stem end rot was determined for each avocado.

[9] = Avocado storage: CO2 production (respiration) and mass loss, salicylic acid; format: in vivo; details: Mexican avocados size 60 stored about one month, 0.6 g/L, two days
Description: (§2) Avocados were Mexican avocados size 60. […] Avocados were monitored for two days for CO2 production (respiration) rate, mass loss, incidence of stem end rot, and severity of stem end rot disease. […] This could be due to changes in the barrier stability or barrier properties when salicylic acid is combined with the mixture of glycerol monostearate and sodium stearate. When comparing the mass loss factor using the salicylic acid+the mixture of glycerol monostearate and sodium stearate to the mixture itself, there was a 0.35× improvement. Severity of stem end rot disease was measured on a 1-4 stem end rot severity scale (STR).

stem end rot [10] = assay: Avocado storage: incidence and severity of stem end rot, salicylic acid; format: in vivo; details: Mexican avocados size 60, 0.6 g/L salicylic acid, two days
Description: as §2

Colletotrichum [11] = assay: Salicylic acid and pH on stem end rot of infected Mexican avocados; format: in vivo
Method: To determine the impact of salicylic acid and pH on stem end rot (Colletotrichum), Colletotrichum disease indices of avocados were determined with various treatments. […] Mexican avocados size 84 were infected with 103 Colletotrichum spores and treated with 1M NaOH pH 6, 0.01% of an imidazole antifungal agent, such as Prochloraz, 0.2% salicylic acid pH 2.5, or 0.2% salicylic acid pH 6. pH was adjusted with 1M NaOH. Uninfected and infected controls were not exposed to treatments. Infection rate was near 100% for the water treated control. Treatment of infected avocados with pH 2.5. […] Treatment with salicylic acid at pH 2.5 reduced percent infection by nearly 70%. However, the percent disease index remained at 100% during treatment with salicylic acid at a pH of 6 (FIG. 7).

[12] = Avocado storage, five days: CO2 production (respiration), salicylic acid and mixture; format: in vivo; details: Mexican avocados size 60, 0.6 g/L or 2.0 g/L salicylic acid
Description: (§3) To determine the impact of salicylic acid and a mixture of 94% glycerol monostearate and a 6% fatty acid salt combinatorial treatment on avocado, Mexican avocados size 60 were exposed to 0.6 g/L salicylic acid, 2.0 g/L salicylic acid, 30 g/L a mixture of glycerol monostearate and sodium stearate, or 0.6 g/L salicylic acid+30 g/L a mixture of glycerol monostearate and sodium stearate treatments. To treat, avocados were removed form cold storage and left at room temperature for four hours. Avocados were then dipped in treatments as indicated and dried in a drying tunnel. Uninfected controls were not exposed to treatments. Avocados were monitored for five days for CO2 production (respiration) rate, mass loss, incidence of stem end rot, and severity of stem end rot disease on a 1-4 stem end rot severity scale (STR). The experiment was concluded when untreated avocados reached a ripeness of <35 shore. […] This may be due to changes in barrier stability or properties.

stem end rot [13] = assay: Avocado storage, five days: incidence and severity of stem end rot; format: in vivo; details: Mexican avocados size 60, five days
Description: as §3

Colletotrichum [14] = assay: Sequential salicylic acid and mixture treatments on stem end rot of infected Mexican avocados; format: in vivo
Method: The pH was adjusted with 1M NaOH. Salicylic acid treatments were performed and dried before subsequent treatments with the mixture of glycerol monostearate and sodium stearate were performed for combinatorial treatments. Controls with salicylic acid treatment and a subsequent treatment with water were also performed. Uninfected controls were not exposed to treatments. Following treatment, the disease index of stem end rot was determined for each avocado. […] Salicylic acid was effective in treatments with salicylic acid first and the mixture of glycerol monostearate and sodium stearate treatment second (FIG. 9).

[15] = Viscosity and pH of salicylic acid and mixture combinations; format: physicochemical; details: salicylic acid 0.15-1.0 g/L in water
Description: The viscosity decreased as the mixture concentration increased, and as the salicylic acid concentration increased (FIG. 11A). […] The maximum amount of salicylic acid that could be added was about 2% of the weight of the mixture (FIG. 10).

Colletotrichum [16] = details: cited from earlier work
[17] = infected California avocados size 84, treatment 0.01%

## CSC(=O)c1cccc2nnsc12 [ASM, Acibenzolar-S-Methyl]
Colletotrichum [1]; [17]
  percent disease index for stem end rot: significantly smaller disease indices compared to the infected control

## COC(=O)c1ccccc1O [MeSA, methyl salicylate]
Colletotrichum [1]; infected California avocados size 84, treatment 0.1%
  percent disease index for stem end rot: no observed effect

## CCCN(CCOc1c(Cl)cc(Cl)cc1Cl)C(=O)n1ccnc1 [Prochloraz]
Colletotrichum [1]; [17]
  percent disease index for stem end rot: effective at decreasing the observed disease index
Colletotrichum [2]; infected California avocados size 96, 0.01%
  percent disease index of stem end rot: effective at decreasing the disease index compared to the infected control

## Cc1ccc(C(C)C)cc1O [carvacrol]
[3]; California avocados sized 96, 10 g/L carvacrol alone
  respiration (CO2 production): may have accelerated respiration
[3]; California avocados sized 96, 10 g/L carvacrol, versus untreated avocados
  mass loss: negligible effect on mass loss
Stem end rot [4]
  disease incidence of stem end rot: almost eliminated disease incidence
Vascular browning
  disease incidence of vascular browning: almost eliminated disease incidence
[5]
  damage to lemon skin: damaged the lemon skin
[6]
  damage to lemon skin: skin burns; also recorded: damaged the lemon skin
[7]
  carvacrol lemon skin burns: prevented carvacrol lemon skin burns

## O=C(O)c1ccccc1O [salicylic acid]
Colletotrichum [2]; infected California avocados size 96, 0.05%
  percent disease index of stem end rot: reduced the stem end rot disease index
Colletotrichum [2]; infected California avocados size 96, 0.1%
  percent disease index of stem end rot: reduced the stem end rot disease index
Colletotrichum [2]; infected California avocados size 96, 0.2%
  percent disease index of stem end rot: reduced the stem end rot disease index; also recorded: most effective
Colletotrichum [8]
  percent disease index of stem end rot: greatest effect
[9]
  CO2 production (respiration) rate: increased the respiration compared to the control
Stem end rot [10]
  incidence of stem end rot: not incidence
  severity of stem end rot disease (1-4 STR scale): reduce the severity
Colletotrichum [11]; infected Mexican avocados size 84, 0.2% salicylic acid pH 2.5
  reduction of percent infection: ~70%
Colletotrichum [11]; infected Mexican avocados size 84, 0.2% salicylic acid pH 6
  percent disease index: 100%
[12]
  CO2 production (respiration): did not increase CO2 production (respiration) compared to the control
Stem end rot [13]
  incidence of stem end rot: slight reductions
  severity of stem end rot (1-4 STR scale): slight reductions
Colletotrichum [14]; infected Mexican avocados size 84, decreased concentration (0.06%), pH 2.3
  percent disease index of stem end rot versus infected water control: more effective than then infected water control treatment
Colletotrichum [14]; infected Mexican avocados size 84, from 0.2% to 0.06%, pH 2.3
  percent disease index of stem end rot, effect of decreasing concentration: reduced the effectiveness of the treatment
Colletotrichum [14]; salicylic acid treatment dried, then a second treatment (mixture or water)
  percent disease index of stem end rot: reduced the percent disease indices
[15]
  pH in water: 2-2.5
Colletotrichum [16]; pH 2.5
  germination: inhibits germination
Colletotrichum [16]; pH raised to pH 6
  germination: loses its inhibitory effect

## O=C([O-])c1ccccc1O.[Na+] [sodium salicylate]
Colletotrichum [2]; infected California avocados size 96, 1%
  percent disease index of stem end rot: did not significantly reduce the disease index
